Assay results as given in patent publication US20250188092A1, “RIFAMYCIN ANALOGS” (THE REGENTS OF THE UNIVERSITY OF MICHIGAN, priority 2021, published 2025).
In brackets after ≈: the same amount, converted by molar mass. Like-named read-outs stand apart in the source and are kept apart here.

What was measured:
[1] = system: non-replicating cultures of M. tuberculosis H37Rv transformed with lux ABCDE; assay: microbe, parasite or virus in culture; assay type: cell-based, Mycobacterium tuberculosis; details: for MIC90: ≥90% reduction in luminescence, read-out: MIC90 LORA; for MIC90 LORA/MABA: ratio of LORA MIC90 to MABA MIC90
[2] = system: M. tuberculosis transformed with luxABCDE; assay: microbe, parasite or virus in culture; assay type: cell-based, Mycobacterium tuberculosis
[3] = Mycobacterium tuberculosis, H37RV
[4] = Mycobacterium tuberculosis, 168 h, […], ≥99% reduction in luminescence, read-out: MBC99 Day 7 (Lux Assay) MBC

Structure (SMILES) | MIC90 [1, 3] [µM] | MBC [2, 4] [µM] | MIC90 LORA Rel to RMP [1] | MIC90 LORA/MABA [1] | MBC99 Day 7 (Lux Assay) MBC Rel to RMP [2] | MIC90 [1] [µM] | MBC ([2]; […], ≥99% reduction in luminescence, read-out: MBC99 Day 7 (Lux Assay) MBC) [µM] | MIC90 LORA Rel to RMP ([1]; LORA MIC90 relative to rifampin (RMP = 1)) | MIC90 ([2]; Mycobacterium tuberculosis, 168 h, day 7 of time-kill study) [µM] | MBC ([2]; Mycobacterium tuberculosis, 168 h, day 7 of time-kill study, read-out: MBC99) [µM]
CO[C@H]1/C=C/O[C@@]2(C)Oc3c(C)c(O)c4c(=O)c(c5oc6cc(N7CCC(C(=O)O)CC7)cc(OCc7ccc(CN8CCN(C)CC8)cc7)c6nc-5c4c3C2=O)NC(=O)/C(C)=C\C=C\[C@H](C)[C@H](O)[C@@H](C)[C@@H](O)[C@@H](C)[C@H](OC(C)=O)[C@@H]1C [Compound 17q, 1-[(7S,9E,11S,12R,13S,14R,15R,16R,17S,18S,19E,21Z)-13-(acetyloxy)-2,15,17-trihydroxy-11-methoxy-3,7,12,14,16,18,22-heptamethyl-32-({4-[(4-methylpiperazin-1-yl)methyl]phenyl}methoxy)-6,23,37-trioxo-8,27,38-trioxa-24,34-diazahexacyclo-[23.11.1.1^4,7.0^5,36.0^26,35.0^28,33]-octatriaconta-1,3,5(36)9,19,21,25,28,30,32,34-undecaen-30-yl]piperidine-4-carboxylic acid] | > 0.02 | > 0.1 | – | – | – | – | – | – | – | –
CCC(=O)N1CCN(c2cc(OCc3ccc(CN4CCOCC4)cc3)c3nc4c5c6c7c(C)c(O)c5c(=O)c(c-4oc3c2)NC(=O)/C(C)=C\C=C\[C@H](C)[C@H](O)[C@@H](C)[C@@H](O)[C@@H](C)[C@H](OC(C)=O)[C@H](C)[C@@H](OC)/C=C/O[C@@](C)(O7)C6=O)CC1 [Compound 17g, (7S,9E,11S,12R,13S,14R,15R,16R,17S,18S,19E,21Z)-2,15,17-Trihydroxy-11-methoxy-3,7,12,14,16,18,22-heptamethyl-32-({4-[(morpholin-4-yl)methyl]phenyl}methoxy)-6,23,37-trioxo-30-(4-propanoylpiperazin-1-yl)-8,27,38-trioxa-24,34-diazahexacyclo-[23.11.1.1^4,7.0^5,36.0^26,35.0^28,33]octatriaconta-1(36)2,4,9,19,21,25,28,30,32,34-undecaen-13-yl acetate] | 0.065 | > 0.1 | 0.3 | 5.4 | – | – | – | – | – | –
CO[C@H]1/C=C/O[C@@]2(C)Oc3c(C)c(O)c4c(=O)c(c5oc6cc(N7CCC(C(=O)O)CC7)cc(C)c6nc-5c4c3C2=O)NC(=O)/C(C)=C\C=C\[C@H](C)[C@H](O)[C@@H](C)[C@@H](O)[C@@H](C)[C@H](OC(C)=O)[C@@H]1C [Compound 29f, 1-[(7S,9E,11S,12R,13S,14R,15R,16R,17S,18S,19E,21Z)-13-(acetyloxy)-2,15,17-trihydroxy-11-methoxy-3,7,12,14,16,18,22,32-octamethyl-6,23,37-trioxo-8,27,38-trioxa-24,34-diazahexacyclo-[23.11.1.1^4,7.0^5,36.0^26,35.0^28,33]octatriaconta-1,3,5(36)9,19,21,25,28,30,32,34-undecaen-30-yl]piperidine-4-carboxylic acid] | 1.07 (≈ 0.987 µg/mL) | > 0.1 | 40 | 4.5 | – | – | – | – | – | –
CO[C@H]1/C=C/O[C@@]2(C)Oc3c(C)c(O)c4c(c3C2=O)C2=NC3(CCN(CC(C)C)CC3)NC2=C(NC(=O)/C(C)=C\C=C\[C@H](C)[C@H](O)[C@@H](C)[C@@H](O)[C@@H](C)[C@H](OC(C)=O)[C@@H]1C)C4=O [RFB, rifabutin, reference compound] | 0.0023 (≈ 0.00195 µg/mL) | 0.01 (≈ 0.00847 µg/mL) | 0.01 | 0.94 | 0.02 | – | – | – | – | –
CO[C@H]1/C=C/O[C@@]2(C)Oc3c(C)c(O)c4c(=O)c(c5oc6cc(N7CCN(C(=O)c8cccc(-c9ccccn9)c8)CC7)cc(C)c6nc-5c4c3C2=O)NC(=O)/C(C)=C\C=C\[C@H](C)[C@H](O)[C@@H](C)[C@@H](O)[C@@H](C)[C@H](OC(C)=O)[C@@H]1C [Compound 29b, (7S,9E,11S,12R,13S,14R,15R,16R,17S,18S,19E,21Z)-2,15,17-Trihydroxy-11-methoxy-3,7,12,14,16,18,22,32-octamethyl-6,23,37-trioxo-30-(4-[3-(pyridin-2-yl)benzoyl]piperazin-1-yl)-8,27,38-trioxa-24,34-diazahexacyclo-[23.11.1.1^4,7.0^5,36.0^26,35.0^28,33]octatriaconta-1(36)2,4,9,19,21,25,28,30,32,34-undecaen-13-yl acetate] | 0.006 | 0.05 | 0.03 | 0.7 | 0.11 | – | – | – | – | –
CO[C@H]1/C=C/O[C@@]2(C)Oc3c(C)c(O)c4c(=O)c(c5oc6cc(N7CCC(CC(=O)O)CC7)cc(C)c6nc-5c4c3C2=O)NC(=O)/C(C)=C\C=C\[C@H](C)[C@H](O)[C@@H](C)[C@@H](O)[C@@H](C)[C@H](OC(C)=O)[C@@H]1C [Compound 29g, 2-{4-[(7S,9E,11S,12R,13S,14R,15R,16R,17S,18S,19E,21Z)-13-(acetyloxy)-2,15,17-trihydroxy-11-methoxy-3,7,12,14,16,18,22,32-octamethyl-6,23,37-trioxo-8,27,38-trioxa-24,34-diazahexacyclo[23.11.1.1^4,7.0^5,36.0^26,35.0^28,33]octatriaconta-1,3,5(36)9,19,21,25,28,30,32,34-undecaen-30-yl]piperidin-4-yl}acetic acid] | 0.28 (≈ 0.263 µg/mL) | > 0.1 | 10 | 5.4 | – | – | – | – | – | –
CO[C@H]1/C=C/O[C@@]2(C)Oc3c(C)c(O)c4c(=O)c(c5oc6cc(N7CCN(CC(C)C)CC7)cc(O)c6nc-5c4c3C2=O)NC(=O)/C(C)=C\C=C\[C@H](C)[C@H](O)[C@@H](C)[C@@H](O)[C@@H](C)[C@H](OC(C)=O)[C@@H]1C [RLZ, rifalazil, reference compound] | 0.0022 (≈ 0.00207 µg/mL) | 0.03 (≈ 0.0282 µg/mL) | 0.01 | 2.0 | 0.07 | – | – | – | – | –
COC(=O)N1CCN(c2cc(C)c3nc4c5c6c7c(C)c(O)c5c(=O)c(c-4oc3c2)NC(=O)/C(C)=C\C=C\[C@H](C)[C@H](O)[C@@H](C)[C@@H](O)[C@@H](C)[C@H](OC(C)=O)[C@H](C)[C@@H](OC)/C=C/O[C@@](C)(O7)C6=O)CC1 [Compound 26g, Methyl 4-[(7S,9E,11S,12R,13S,14R,15R,16R,17S,18S,19E,21Z)-13-(acetyloxy)-2,15,17-trihydroxy-11-methoxy-3,7,12,14,16,18,22,32-octamethyl-6,23,37-trioxo-8,27,38-trioxa-24,34-diazahexacyclo[23.11.1.1^4,7.0^5,36.0^26,35.0^28,33]octatriaconta-1(36)2,4,9,19,21,25,28,30,32,34-undecaen-30-yl]piperazine-1-carboxylate] | 0.0096 (≈ 0.00903 µg/mL) | 0.043 (≈ 0.0405 µg/mL) | 0.05 | 1.9 | 0.09 | – | – | – | – | –
CO[C@H]1/C=C/O[C@@]2(C)Oc3c(C)c(O)c4c(=O)c(c5oc6cc(N7CCN(C(C)=O)CC7)cc(C)c6nc-5c4c3C2=O)NC(=O)/C(C)=C\C=C\[C@H](C)[C@H](O)[C@@H](C)[C@@H](O)[C@@H](C)[C@H](OC(C)=O)[C@@H]1C [Compound 26d, (7S,9E,11S,12R,13S,14R,15R,16R,17S,18S,19E,21Z)-30-(4-Acetylpiperazin-1-yl)-2,15,17-trihydroxy-11-methoxy-3,7,12,14,16,18,22,32-octamethyl-6,23,37-trioxo-8,27,38-trioxa-24,34-diazahexacyclo[23.11.1.1^4,7.0^5,36.0^26,35.0^28,33]octatriaconta-1(36)2,4,9,19,21,25,28,30,32,34-undecaen-13-yl acetate] | > 0.02 | > 0.1 | – | – | – | – | – | – | – | –
CO[C@H]1/C=C/O[C@@]2(C)Oc3c(C)c(O)c4c(=O)c(c5oc6cc(N7CCN(C(=O)c8ccc(-c9ccc(C(N)=O)cc9)cc8)CC7)cc(OCc7ccc(CN8CCOCC8)cc7)c6nc-5c4c3C2=O)NC(=O)/C(C)=C\C=C\[C@H](C)[C@H](O)[C@@H](C)[C@@H](O)[C@@H](C)[C@H](OC(C)=O)[C@@H]1C [Compound 17t, (7S,9E,11S,12R,13S,14R,15R,16R,17S,18S,19E,21Z)-30-(4-{[4-(4-carbamoylphenyl)-phenyl]carbonyl}piperazin-1-yl)-2,15,17-trihydroxy-11-methoxy-3,7,12,14,16,18,22-heptamethyl-32-{[4-(morpholin-4-ylmethyl)phenyl]methoxy}-6,23,37-trioxo-8,27,38-trioxa-24,34-diazahexacyclo[23.11.1.1^4,7.0^5,36.0^26,35.0^28,33]octatriaconta-1,3,5(36)9,19,21,25,28,30,32,34-undecaen-13-yl acetate] | – | – | 1.2 | 1.8 | 0.12 | 0.059 | 0.086 | – | – | –
CO[C@H]1/C=C/O[C@@]2(C)Oc3c(C)c(O)c4c(O)c(c(/C=N/N5CCN(C)CC5)c(O)c4c3C2=O)NC(=O)/C(C)=C\C=C\[C@H](C)[C@H](O)[C@@H](C)[C@@H](O)[C@@H](C)[C@H](OC(C)=O)[C@@H]1C [RMP, rifampin, reference compound] | 0.206 (≈ 0.17 µg/mL) | 0.463 (≈ 0.381 µg/mL) | – | 7.6 | 1 | – | – | 1 | 0.03 (≈ 0.0247 µg/mL) | 0.463 (≈ 0.381 µg/mL)
CO[C@H]1/C=C/O[C@@]2(C)Oc3c(C)c(O)c4c(=O)c(c5oc6cc(N7CCN(C(=O)OC(C)(C)C)CC7)cc(C)c6nc-5c4c3C2=O)NC(=O)/C(C)=C\C=C\[C@H](C)[C@H](O)[C@@H](C)[C@@H](O)[C@@H](C)[C@H](OC(C)=O)[C@@H]1C [Compound 26i, tert-Butyl 4-[(7S,9E,11S,12R,13S,14R,15R,16R,17S,18S,19E,21Z)-13-(acetyloxy)-2,15,17-trihydroxy-11-methoxy-3,7,12,14,16,18,22,32-octamethyl-6,23,37-trioxo-8,27,38-trioxa-24,34-diazahexacyclo[23.11.1.1^4,7.0^5,36.0^26,35.0^28,33]octatriaconta-1(36)2,4,9,19,21,25,28,30,32,34-undecaen-30-yl]piperazine-1-carboxylate] | 0.0093 (≈ 0.00914 µg/mL) | 0.047 (≈ 0.0462 µg/mL) | 0.05 | 2.0 | 0.10 | – | – | – | – | –
